Series [1] concerns KMS-12-PE cells, Parental. The series can be described thus: CellTiter-Glo cell viability, KMS-12-PE parental cells. Format: cell-based. As to conditions: 3 independent experiments in duplicate.
Series [2] has as its target BCL-2 WT. As to conditions: competition vs BIMBH3 SPR surface, mean ± SD, n=3, previously reported, listed as Ven; cited from earlier work.
In series [3] the test system is BCL-2 G101V. As to conditions: G101V relative to WT; cited from earlier work.
Series [4] has as its target BCL-2 F104L. As to conditions: listed as Ven, cited from earlier work.
Series [5] concerns the target BCL-2 G101V/E152A double mutant (Homo sapiens, UniProt P10415, E152A/G101V). The series can be described thus: SPR direct binding to immobilised BH3 peptides (kinetic fit), BCL-2 G101V/E152A double mutant. As to the method: (§1) SPR experiments were performed as previously described. […] The lowest concentrations used in direct binding experiments were 1 nM for BIAcore 4000 and 0.1 nM for BIAcore S200 instruments, concentrations below these were below the sensitivity thresholds for the instruments. […] Direct binding experiments were fitted to a 1:1 binding site kinetic model, fitting on and off rates, in BIAevaluation software. For competition experiments steady-state responses were determined in BIAevaluation software according to the software defaults in affinity evaluation mode averaging responses for 5 sec. […] All affinity measurements were performed in at least two independent experiments using independent protein preparations.
(§2) Raw data (coloured curves) were fitted (black curves) to a 1 site specific kinetic model to determine on and off rates and the equilibrium binding constant KD.
(§3) The BCL-2 mutant proteins were diluted in a 2-fold dilution series, concentration ranges for curves are indicated. All experiments shown were performed on a BIAcore 4000, with the exception of (a) which was performed on a BIAcore S200.
(§4) (1 picture or pasted object on this page, not shown here)

For series [6], the target named is BCL-2 WT. As to conditions: cited from earlier work.
Series [7] addresses BCL-2 G101V. The conditions noted are these: cited from earlier work.
In a further series the target is BCL-2 F104C (Homo sapiens, UniProt P10415, F104C). The series can be described thus: SPR direct binding to immobilised BH3 peptides (kinetic fit), BCL-2 F104C. The conditions noted are these: for Kd: BCL-2 F104C. The method, then: as §1, §2, §3, §4
Series [8] has as its target BCL-2 F104L. As to conditions: cited from earlier work.
A further series addresses BCL-2 E152A (Homo sapiens, UniProt P10415, E152A). The series can be described thus: SPR direct binding to immobilised BH3 peptides (kinetic fit), BCL-2 E152A. The method, then: as §1, §2, §3, §4
Where [9] appears, read: read-out: BAXBH3 KD (mean), direct binding, kinetic fit, mean ± SD, n ≥ 2, previously reported.
[10] abbreviates: read-out: BAXBH3 KD, single independent experiments, independent experiments 1-3, previously reported.
Setting [11] is: BCL-2 F104C binding BAXBH3, 1:1 kinetic fit, each independent experiment.
[12] abbreviates: read-out: BAXBH3 KD (mean), direct binding, kinetic fit, mean ± SD, n ≥ 2.

Values joined by “and” are separate entries in the source; they are usually repeats but may differ in a detail not shown here. Identical values can stand only once. Like-named read-outs stand apart in the source and are kept apart here. Where no end group is shown, it is not given here.

BCL-2 G101V/E152A double mutant, sequence (P10415 with tags, fused parts or gaps G101V/E152A): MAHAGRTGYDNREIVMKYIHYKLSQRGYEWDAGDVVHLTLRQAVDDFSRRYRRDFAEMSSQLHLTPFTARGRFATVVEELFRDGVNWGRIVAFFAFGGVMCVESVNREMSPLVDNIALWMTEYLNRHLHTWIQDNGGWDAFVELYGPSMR
BCL-2 F104C, sequence (P10415 with tags, fused parts or gaps F104C): as the sequence (P10415 with tags, fused parts or gaps G101V/E152A) above, with V44G, F47C, A95E counted along it
BCL-2 E152A, sequence (P10415 with tags, fused parts or gaps E152A): as the sequence (P10415 with tags, fused parts or gaps G101V/E152A) above, with V44G counted along it

For the molecule `O=C(c1cc(-c2cc3c(cc2C(=O)N2Cc4ccccc4C[C@H]2CN2CCOCC2)OCO3)n2c1CCCC2)N(c1ccccc1)c1ccc(O)cc1` [Servier BCL2i], the “Raw data values in Figure 4a (cell viability)” value was 91.4402 and 90.8859 and 86.2314 and 89.8168 and 85.5276 and 83.3911 in series [1] (Servier BCL2i concentration 0.002441 μM, 0.002441 µM); 79.2854 and 83.3303 and 62.6836 and 66.1433 and 63.9237 and 63.1413 in series [1] (Servier BCL2i concentration 0.019531 μM, 0.019531 µM); 41.8118 and 47.4883 and 34.039 and 38.7009 and 36.6962 and 37.7057 in series [1] (Servier BCL2i concentration 0.15625 μM, 0.15625 µM); 0.8691 and 0.8133 and 1.2479 and 1.255 and 1.1789 and 1.099 in series [1] (Servier BCL2i concentration 10 μM, 10 µM).

The term Ki denotes a dissociation constant, usually derived from enzyme kinetics or from competition with a known ligand. As for `CC1(C)CCC(CN2CCN(c3ccc(C(=O)NS(=O)(=O)c4ccc(NCC5CCOCC5)c([N+](=O)[O-])c4)c(Oc4cnc5[nH]ccc5c4)c3)CC2)=C(c2ccc(Cl)cc2)C1` [venetoclax], the inhibitory constant (Ki) on BCL-2 WT [2] is 0.018 nM and 0.0181 nM; on BCL-2 F104L [4] (competition vs BIMBH3 SPR surface, mean ± SD, n=3, previously reported, read-out: Ven KI (mean)), 0.46 nM and 0.456 nM; at BCL-2 F104L [4] (independent experiments 1-3, previously reported, read-out: Ven KI, single independent experiments), 0.358 nM and 0.584 nM and 0.425 nM. Moreover, in the series on BCL-2 G101V [3], the “reduction of affinity of the drug for BCL-2 by the G101V mutation” value is recorded as roughly 180 fold.

One may read the Kd as the concentration at which binding is half-saturated. For “BAXBH3: biotinylated BAXBH3 peptide ADASTKKLSECLKRIGDELDSNMELQRMIAA immobilised on SPR sensor chip (also: biotinylated, place not given here)”, the Kd in series [5] (read-out: BAXBH3 KD (mean), BCL-2 G101V/E152A, direct binding, kinetic fit, mean ± SD, n ≥ 2) is 5.5 nM and 5.51 nM; in [5] (read-out: BAXBH3 KD, single independent experiments, BCL-2 G101V, E152A (DM), independent experiments 1-2), 5.7 nM and 5.31 nM; on BCL-2 WT [6] (setting [9]), 1.4 nM and 1.37 nM; at BCL-2 WT [6] (setting [10]), 1.6 nM and 1.14 nM and 1.36 nM; on BCL-2 G101V [7] (setting [9]), 12 nM and 11.7 nM; on BCL-2 G101V [7] (setting [10]), 9.91 nM and 12.9 nM and 12.2 nM. For the same molecule, the Kd in the series with BCL-2 F104C (setting [12]) is 4 nM and 4.02 nM; with BCL-2 F104C (read-out: BAXBH3 KD, single independent experiments, independent experiments 1-3), 4.25 nM and 3.96 nM and 3.84 nM; on BCL-2 F104L [8] (setting [9]), 6.1 nM and 6.08 nM; at BCL-2 F104L [8] (setting [10]), 7.24 nM and 5.46 nM and 5.55 nM; with BCL-2 E152A (setting [12]), 3.6 nM and 3.55 nM; in the series with BCL-2 E152A (read-out: BAXBH3 KD, single independent experiments, independent experiments 1-2), 4.18 nM and 2.93 nM. The ka with BCL-2 F104C (setting [11]) is 1.67e+06 M⁻¹ s⁻¹ and 2e+06 M⁻¹ s⁻¹ and 2.06e+06 M⁻¹ s⁻¹. Also, the kd with BCL-2 F104C (setting [11]) is 0.00709 s⁻¹ and 0.00791 s⁻¹ and 0.0079 s⁻¹.

Source of the values: publication PMC6547681 (Nature Communications, 2019).
